Test results: ChEMBL document CHEMBL1201862, “PubChem BioAssay data set” (2004)
The source made the active and inactive calls.

Experiments:
[1] = biological target: Voltage-dependent T-type calcium channel subunit alpha-1H (Homo sapiens, UniProt O95180); type: functional;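 note: channel activity triggered by adding a high calcium stimulation buffer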
HEK293 [2] = assay: cells; type: functional, cell-based; settings: Homo sapiens
[3] = biological target: Nucleotide-binding oligomerization domain-containing protein 2 (Homo sapiens, UniProt Q9HC29); assay: NOD2 signaling inhibitors, cell-based, luminescence, uHTS, HEK293 (AID 1566); type: functional
HEK293 [4] = assay: NOD1 signaling inhibitors, primary screen, cell-based, luminescence, uHTS (AID 1578); type: functional; settings: Homo sapiens
[5] = inhibitors of firefly luciferase expression or activity, dose response, H4 neuroglioma cells, luminescence (AID 1990); type: functional, cell-based
[6] = inhibitors of SNCA 5'UTR-driven reporter translation, confirmation, H4 neuroglioma cells, luminescence (AID 1988); type: functional, cell-based
HEK293 [7] = assay: cells; type: functional, cell-based; settings: Homo sapiens; remark: listed apart in the source
HEK293 [8] = assay: NOD2 signaling inhibitors in MDP-stimulated cells, cell-based, uHTS, luminescence (AID 2001); type: functional; settings: Homo sapiens
[9] = Luminescence Cell-Based Dose Response HTS to Identify Inhibitors of 5'UTR Stem-Loop Driven Prion Protein mRNA Translation in H4 Neuroglioblastoma Cells. [Related pubchem assays: 1827 (Project Summary), 1813 (Primary HTS)]; type: functional
HEK293 [10] = assay: cells; type: functional, cell-based; settings: Homo sapiens; remark: listed apart in the source
[11] = biological target: T1, RNA-binding protein pos-1 (Caenorhabditis elegans, UniProt G5EF15); assay: inhibitors of POS-1/mex-3 RNA binding, dose response, biochemical, fluorescence polarization (AID 1964);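 note: purified POS-1 fused to maltose binding protein made in E. coli; potency of compounds blocking POS-1 binding to fluorescent RNA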
T1 sequence (G5EF15 whole entry): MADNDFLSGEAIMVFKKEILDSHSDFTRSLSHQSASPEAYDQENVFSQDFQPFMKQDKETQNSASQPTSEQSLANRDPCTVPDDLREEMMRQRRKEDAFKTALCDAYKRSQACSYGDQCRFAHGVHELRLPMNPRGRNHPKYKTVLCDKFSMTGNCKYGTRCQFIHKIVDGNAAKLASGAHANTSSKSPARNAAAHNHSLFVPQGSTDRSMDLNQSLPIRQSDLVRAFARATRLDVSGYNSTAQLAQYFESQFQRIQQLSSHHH

[12] = cytotoxicity in HEK-293T cells, dose response, cytotoxicity control for BCR NF-kB inhibitor project, luminescence, B-cell screen hits (AID 489021); type: functional, cell-based;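 note: HEK-293T cells carrying an NF-kB luciferase reporter; cells exposed to compound for about 14 hours before viability readout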
[13] = biological target: T2, Zinc finger protein mex-5 (Caenorhabditis elegans, UniProt Q9XUB2); assay: MEX-5/TCR-2 RNA interaction inhibitors, dose response, biochemical, C. elegans, fluorescence polarization (AID 1960)
T2 sequence (Q9XUB2 whole entry): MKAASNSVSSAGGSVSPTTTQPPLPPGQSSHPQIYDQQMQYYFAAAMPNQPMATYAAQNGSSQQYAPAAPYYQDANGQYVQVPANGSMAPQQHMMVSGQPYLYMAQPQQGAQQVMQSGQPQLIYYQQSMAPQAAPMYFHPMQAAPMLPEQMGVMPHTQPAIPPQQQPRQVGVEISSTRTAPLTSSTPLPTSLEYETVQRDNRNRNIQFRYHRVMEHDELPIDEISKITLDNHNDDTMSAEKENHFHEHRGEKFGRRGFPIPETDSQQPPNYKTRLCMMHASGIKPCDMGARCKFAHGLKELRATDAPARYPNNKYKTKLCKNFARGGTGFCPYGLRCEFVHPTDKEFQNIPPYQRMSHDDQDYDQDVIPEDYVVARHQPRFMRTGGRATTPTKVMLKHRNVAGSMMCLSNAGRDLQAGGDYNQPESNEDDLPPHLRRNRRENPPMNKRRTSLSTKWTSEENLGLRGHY

[14] = inhibitors of clade B AD8 Env fusion, dose response, cell-based, cherry-pick (AID 652062); type: functional;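 note: luciferase signal from cell-cell fusion driven by HIV-1 clade B AD8 Env; potency is for inhibitors of fusion seen as a drop in luminescence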
[15] = HepG2 cell cytotoxicity, dose response, cytotoxicity control for Shn3 inhibitor project, CellTiter-Glo, cherry-picked (AID 624134); type: functional, cell-based
[16] = ZM109 Env clade C HIV-1 fusion inhibitors, dose response, HeLa effector, CEM target cells, luciferase, cherry-pick (AID 652058); type: functional, cell-based
[17] = inhibitors of HIV Env-driven cell fusion, dose response, cherry-pick (AID 652057); type: functional, cell-based
[18] = Shn3 3'UTR reporter inhibitors, dose response, cell-based, Clone20 osteoblasts, firefly luciferase, cherry-picked (AID 624132); type: functional;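 note: firefly luciferase luminescence from reporter carrying the Shn3 3'UTR in osteoblasts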
[19] = control 3'UTR Renilla luciferase suppression, dose response, counter-screen for Shn3 inhibitor project, cell-based, Clone20-Shn3RL, cherry-picked (AID 624133); type: functional
[20] = Vero E6 cell cytotoxicity, dose response, cytotoxicity control for non-replicating M. tuberculosis project, secondary assay (AID 492998); type: functional, VeroE6; settings: Vero C1008
[21] = Luminescence Cell-Based Dose Response HTS to Identify Activators of Luciferase Translation or Activity in H4 […] Cells. [Related pubchem assays: 1829 (Project Summary), 1814 (Primary HTS)]; type: functional
[22] = THP-1 cell cytotoxicity, dose response, cytotoxicity control for non-replicating M. tuberculosis project (AID 489025); type: functional
Leucine aminopeptidase = biological target: T3, Leucine aminopeptidase (Plasmodium falciparum 3D7, UniProt Q8IL11); assay: P. falciparum M17LAP inhibitors, primary screen, biochemical, fluorogenic H-Leu-NHMec substrate, 1536-well (AID 1619); type: functional
T3 sequence (Q8IL11 whole entry): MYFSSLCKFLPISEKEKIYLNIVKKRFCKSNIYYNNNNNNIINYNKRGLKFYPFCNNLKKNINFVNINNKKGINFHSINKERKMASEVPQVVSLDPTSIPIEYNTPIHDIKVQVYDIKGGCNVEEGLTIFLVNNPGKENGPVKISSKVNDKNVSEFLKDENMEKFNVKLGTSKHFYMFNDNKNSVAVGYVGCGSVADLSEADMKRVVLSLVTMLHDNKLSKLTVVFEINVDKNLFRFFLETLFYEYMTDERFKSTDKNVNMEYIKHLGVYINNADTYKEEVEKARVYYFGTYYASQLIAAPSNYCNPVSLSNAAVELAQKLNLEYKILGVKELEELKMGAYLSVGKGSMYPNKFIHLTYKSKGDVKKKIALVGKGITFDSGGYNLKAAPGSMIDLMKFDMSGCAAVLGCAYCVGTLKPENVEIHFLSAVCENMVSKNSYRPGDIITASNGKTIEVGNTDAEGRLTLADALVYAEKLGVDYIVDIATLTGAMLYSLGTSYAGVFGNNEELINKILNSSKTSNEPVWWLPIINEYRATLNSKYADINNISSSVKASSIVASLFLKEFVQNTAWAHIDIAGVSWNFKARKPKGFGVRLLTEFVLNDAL

[23] = Luminescence Cell-Based Dose Confirmation HTS to Identify Activators of 5'UTR Stem-Loop Driven Alpha-Synuclein mRNA Translation in H4 Neuroglioblastoma Cells. [Related pubchem assays: 1829 (Project Summary), 1814 (Primary HTS)]; type: functional
[24] = HepG2 cell cytotoxicity, dose response, cytotoxicity control for non-replicating M. tuberculosis project (AID 489018); type: functional; settings: Mycobacterium tuberculosis
H4 = assay: Luminescence Cell-Based Dose Response HTS to Identify Activators of 5'UTR Stem-Loop Driven Prion Protein mRNA Translation in H4 Neuroglioblastoma Cells. [Related pubchem assays: 1829 (Project Summary), 1814 (Primary HTS)]; type: functional; settings: Homo sapiens
[25] = biological target: T4, DNA repair and recombination protein RAD54-like (Homo sapiens, UniProt Q92698); assay: inhibitors of human RAD54 branch migration, confirmation, biochemical, fluorescence, cherry-picked samples, dose series (AID 651657); type: functional
T4 sequence (Q92698 whole entry): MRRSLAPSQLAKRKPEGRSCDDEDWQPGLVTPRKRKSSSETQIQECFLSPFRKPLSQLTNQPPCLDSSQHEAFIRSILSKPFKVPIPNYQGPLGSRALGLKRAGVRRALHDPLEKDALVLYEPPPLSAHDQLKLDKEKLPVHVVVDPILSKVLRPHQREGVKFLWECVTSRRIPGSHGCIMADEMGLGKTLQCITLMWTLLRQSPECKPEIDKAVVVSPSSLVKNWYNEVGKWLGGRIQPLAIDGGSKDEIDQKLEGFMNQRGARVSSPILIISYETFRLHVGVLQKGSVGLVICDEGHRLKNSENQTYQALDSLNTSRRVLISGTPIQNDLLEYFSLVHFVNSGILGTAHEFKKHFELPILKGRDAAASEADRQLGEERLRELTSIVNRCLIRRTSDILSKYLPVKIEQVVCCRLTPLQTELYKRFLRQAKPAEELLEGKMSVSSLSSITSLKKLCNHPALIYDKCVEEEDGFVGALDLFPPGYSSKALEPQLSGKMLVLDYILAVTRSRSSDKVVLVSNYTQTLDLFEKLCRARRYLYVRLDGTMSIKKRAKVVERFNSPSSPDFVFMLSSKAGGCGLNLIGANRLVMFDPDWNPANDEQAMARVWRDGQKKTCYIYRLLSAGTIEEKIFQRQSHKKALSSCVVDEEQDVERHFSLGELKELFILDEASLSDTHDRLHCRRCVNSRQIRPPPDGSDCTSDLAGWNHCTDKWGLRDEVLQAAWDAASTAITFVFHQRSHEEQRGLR

cells = type: functional
Prothrombin = Prothrombin (Homo sapiens, UniProt P00734); assay: Thrombin 1536 HTS Dose Response Confirmation. [Related pubchem assays: 1046 (Thrombin 1536 HTS; hits were confirmed in this assay)]; type: functional
Coagulation factor XII = biological target: T5, Coagulation factor XII (Homo sapiens, UniProt P00748); type: functional;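 note: activated factor XIIa alpha cleaving a fluorogenic AMC peptide substrate; inhibitor potency from loss of enzyme activity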
T5 sequence (P00748 whole entry): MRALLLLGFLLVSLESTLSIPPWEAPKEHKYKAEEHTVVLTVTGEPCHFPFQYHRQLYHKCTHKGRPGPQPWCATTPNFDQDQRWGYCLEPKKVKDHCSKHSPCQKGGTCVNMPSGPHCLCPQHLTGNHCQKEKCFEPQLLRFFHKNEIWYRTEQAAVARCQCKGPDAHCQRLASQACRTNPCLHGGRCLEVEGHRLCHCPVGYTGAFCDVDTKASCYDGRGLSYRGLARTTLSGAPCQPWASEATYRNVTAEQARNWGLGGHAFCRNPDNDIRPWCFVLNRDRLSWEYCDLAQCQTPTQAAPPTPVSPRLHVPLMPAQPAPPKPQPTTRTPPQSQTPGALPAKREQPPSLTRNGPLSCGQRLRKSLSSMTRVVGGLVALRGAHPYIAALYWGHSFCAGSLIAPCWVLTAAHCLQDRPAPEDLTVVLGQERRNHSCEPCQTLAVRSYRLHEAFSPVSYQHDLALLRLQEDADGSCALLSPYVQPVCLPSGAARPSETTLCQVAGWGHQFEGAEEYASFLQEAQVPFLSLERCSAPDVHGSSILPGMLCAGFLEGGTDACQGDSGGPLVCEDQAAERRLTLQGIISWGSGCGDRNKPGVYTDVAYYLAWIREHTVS

Sequence of Nucleotide-binding oligomerization domain-containing protein 2 (Q9HC29 whole entry, the tested form may be a part): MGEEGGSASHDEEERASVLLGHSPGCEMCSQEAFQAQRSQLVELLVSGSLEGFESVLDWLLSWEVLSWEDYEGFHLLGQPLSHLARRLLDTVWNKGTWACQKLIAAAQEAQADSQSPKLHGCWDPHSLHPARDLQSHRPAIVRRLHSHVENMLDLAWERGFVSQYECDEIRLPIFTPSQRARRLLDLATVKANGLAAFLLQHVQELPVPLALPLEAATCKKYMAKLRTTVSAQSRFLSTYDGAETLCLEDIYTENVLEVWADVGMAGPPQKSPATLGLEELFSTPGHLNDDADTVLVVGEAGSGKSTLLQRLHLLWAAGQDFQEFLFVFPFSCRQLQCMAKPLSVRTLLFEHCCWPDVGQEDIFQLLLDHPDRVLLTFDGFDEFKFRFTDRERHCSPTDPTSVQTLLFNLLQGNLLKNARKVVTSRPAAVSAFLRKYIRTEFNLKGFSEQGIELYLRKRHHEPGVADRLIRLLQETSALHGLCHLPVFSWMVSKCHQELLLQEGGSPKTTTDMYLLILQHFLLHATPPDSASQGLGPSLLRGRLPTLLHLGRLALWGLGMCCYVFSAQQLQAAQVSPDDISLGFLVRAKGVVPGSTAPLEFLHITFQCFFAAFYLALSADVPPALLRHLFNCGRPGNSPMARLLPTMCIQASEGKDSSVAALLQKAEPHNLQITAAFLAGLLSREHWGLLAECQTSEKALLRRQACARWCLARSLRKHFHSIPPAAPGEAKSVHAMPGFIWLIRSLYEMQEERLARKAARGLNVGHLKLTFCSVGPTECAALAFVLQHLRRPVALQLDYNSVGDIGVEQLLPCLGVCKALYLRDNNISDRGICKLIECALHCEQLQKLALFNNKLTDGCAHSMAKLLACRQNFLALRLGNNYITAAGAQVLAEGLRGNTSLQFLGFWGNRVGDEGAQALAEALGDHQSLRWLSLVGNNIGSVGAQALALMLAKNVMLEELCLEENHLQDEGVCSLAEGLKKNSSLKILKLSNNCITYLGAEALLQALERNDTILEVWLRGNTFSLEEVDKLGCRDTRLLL
Sequence of Voltage-dependent T-type calcium channel subunit alpha-1H (O95180 whole entry): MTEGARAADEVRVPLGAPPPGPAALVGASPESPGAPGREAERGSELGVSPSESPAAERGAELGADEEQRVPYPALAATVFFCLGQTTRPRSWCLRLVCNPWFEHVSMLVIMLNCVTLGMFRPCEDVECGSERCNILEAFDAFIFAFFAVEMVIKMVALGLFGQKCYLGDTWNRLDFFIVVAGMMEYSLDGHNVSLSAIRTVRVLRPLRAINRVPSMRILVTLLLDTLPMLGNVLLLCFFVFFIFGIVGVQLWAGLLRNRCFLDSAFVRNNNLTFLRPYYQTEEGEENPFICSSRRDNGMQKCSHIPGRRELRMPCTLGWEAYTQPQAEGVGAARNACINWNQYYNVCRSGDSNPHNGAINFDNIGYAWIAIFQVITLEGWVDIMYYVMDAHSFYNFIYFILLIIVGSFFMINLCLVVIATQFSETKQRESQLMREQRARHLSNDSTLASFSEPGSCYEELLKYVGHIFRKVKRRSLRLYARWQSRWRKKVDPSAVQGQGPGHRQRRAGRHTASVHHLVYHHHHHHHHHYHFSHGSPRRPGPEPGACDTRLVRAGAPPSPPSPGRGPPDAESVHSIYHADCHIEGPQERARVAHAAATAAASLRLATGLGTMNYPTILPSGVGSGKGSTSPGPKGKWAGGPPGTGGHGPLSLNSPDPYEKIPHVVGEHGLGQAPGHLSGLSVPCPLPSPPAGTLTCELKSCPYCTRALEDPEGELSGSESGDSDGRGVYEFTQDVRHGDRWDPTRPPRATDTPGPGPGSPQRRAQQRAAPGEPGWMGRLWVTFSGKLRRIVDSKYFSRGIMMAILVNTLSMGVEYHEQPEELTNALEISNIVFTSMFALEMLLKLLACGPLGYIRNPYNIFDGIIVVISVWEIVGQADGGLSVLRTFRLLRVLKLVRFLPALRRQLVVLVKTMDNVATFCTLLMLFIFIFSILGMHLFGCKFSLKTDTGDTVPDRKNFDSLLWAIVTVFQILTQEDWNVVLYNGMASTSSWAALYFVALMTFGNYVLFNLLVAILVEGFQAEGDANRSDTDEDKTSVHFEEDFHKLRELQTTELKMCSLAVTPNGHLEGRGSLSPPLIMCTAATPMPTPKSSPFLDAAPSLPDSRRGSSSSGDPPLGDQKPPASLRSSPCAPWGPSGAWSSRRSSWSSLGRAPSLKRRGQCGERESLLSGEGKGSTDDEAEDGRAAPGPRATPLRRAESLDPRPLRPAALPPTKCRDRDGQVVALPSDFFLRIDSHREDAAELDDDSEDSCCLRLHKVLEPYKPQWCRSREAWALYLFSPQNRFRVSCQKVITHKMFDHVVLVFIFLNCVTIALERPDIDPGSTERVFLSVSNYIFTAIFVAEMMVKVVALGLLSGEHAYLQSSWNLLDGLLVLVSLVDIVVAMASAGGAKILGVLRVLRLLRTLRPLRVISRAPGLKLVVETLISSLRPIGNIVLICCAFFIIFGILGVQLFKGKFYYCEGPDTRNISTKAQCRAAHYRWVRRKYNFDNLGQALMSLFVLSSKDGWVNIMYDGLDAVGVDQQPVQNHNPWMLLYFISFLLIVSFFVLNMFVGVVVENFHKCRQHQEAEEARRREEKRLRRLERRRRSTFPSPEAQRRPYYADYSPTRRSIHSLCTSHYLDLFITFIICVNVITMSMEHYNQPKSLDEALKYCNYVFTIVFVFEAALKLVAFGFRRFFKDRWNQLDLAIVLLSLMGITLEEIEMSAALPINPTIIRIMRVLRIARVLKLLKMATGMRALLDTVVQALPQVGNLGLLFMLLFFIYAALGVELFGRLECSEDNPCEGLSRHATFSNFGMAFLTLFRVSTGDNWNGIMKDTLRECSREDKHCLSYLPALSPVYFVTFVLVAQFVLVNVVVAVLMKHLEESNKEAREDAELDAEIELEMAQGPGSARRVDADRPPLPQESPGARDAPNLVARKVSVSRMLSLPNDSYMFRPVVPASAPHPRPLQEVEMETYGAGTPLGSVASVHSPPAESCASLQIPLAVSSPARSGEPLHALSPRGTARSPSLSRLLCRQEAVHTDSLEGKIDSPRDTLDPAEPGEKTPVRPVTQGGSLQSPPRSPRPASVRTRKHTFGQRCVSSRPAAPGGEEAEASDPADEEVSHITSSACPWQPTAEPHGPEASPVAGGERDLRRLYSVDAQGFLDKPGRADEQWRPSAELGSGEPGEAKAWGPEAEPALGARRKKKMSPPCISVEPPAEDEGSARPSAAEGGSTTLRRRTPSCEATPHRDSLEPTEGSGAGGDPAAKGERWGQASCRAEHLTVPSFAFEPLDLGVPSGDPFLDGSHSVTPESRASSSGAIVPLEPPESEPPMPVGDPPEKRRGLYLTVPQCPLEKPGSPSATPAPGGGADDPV

In the case of O=C(NC1CCCCC1)C(c1ccccc1)N(Cc1ccc2c(c1)OCO2)C(=O)c1cnsn1 (centres undefined), the EC50 [1] was 4.5 µM (active).
For COc1ccccc1C(=O)NCc1ccc(-c2nc3ccccc3s2)cc1, the IC50 (HEK293 [2]) was > 20 µM (inactive), the EC50 [3] was 6.29 µM (active) and the EC50 (HEK293 [4]) was 6.77 µM (active). For the same molecule, the EC50 [5] was 15.2 µM (active), the EC50 [6] was 0.312 µM (active) and the IC50 (HEK293 [7]) was > 20 µM (inactive). The IC50 (HEK293 [8]) was 6.82 µM (inactive), the EC50 [9] was > 120 µM (not active) and the IC50 (HEK293 [10]) was 1.93 µM (active).
With Cc1ccccc1Nc1nc(Cl)c(C=O)s1 the EC50 [11] was > 300 µM (not active), the IC50 [12] was > 80 µM (inactive) and the EC50 [13] was > 300 µM (not active).
In the case of Cc1cc(Cl)c(S(=O)(=O)N2CCSCC2)cc1OCC(=O)NC1CCCCC1, the AC50 [14] was 4.1 µM (active), the IC50 (HEK293 [2]) was > 20 µM (inactive) and the AC50 [15] was 4.04 µM (active). For the same molecule, the EC50 [3] was 7.37 µM (active), the EC50 (HEK293 [4]) was 2.58 µM (active) and the AC50 [16] was 1.06 µM (active). The AC50 [17] was 31.6 µM (active), the IC50 (HEK293 [7]) was 9.2 µM (active) and the IC50 (HEK293 [8]) was 3.6 µM (active). The AC50 [18] was 4.11 µM (active), the IC50 (HEK293 [10]) was 4.29 µM (active) and the AC50 [19] was 5.08 µM (active).
With CSC1=NSC2=NC(=O)/C(=C\c3cccs3)C(=N)N12 the CC50 [20] was > 20 µM (active), the EC50 [21] was 0.418 µM (active) and the CC50 [22] was > 40 µM (active). For the same molecule, the IC50 (Leucine aminopeptidase) was 32.2 µM (active), the EC50 [23] was 8.94 µM (active) and the CC50 [24] was > 20 µM (active). The EC50 (H4) was 75 µM (active).
With O=C(NCCCN1CCCC1)c1cc2c(Cl)nc3ccccc3c2s1 the AC50 [25] was 7.11 µM (active), the IC50 (cells) was 30.8 µM (active) and the CC50 [20] was > 20 µM (active). For the same molecule, the CC50 [22] was 38.7 µM (active) and the CC50 [24] was > 20 µM (active).
In the case of Cc1ccc(S(=O)(=O)Nc2cccnc2Oc2ccc(Cl)cc2)cc1, the IC50 (Prothrombin) was > 50 µM (not active) and the IC50 (Coagulation factor XII) was > 50 µM (inactive).
